Test results as given in patent publication US9562053B2, “Benzo-fused heterocyclic derivatives useful as agonists of GPR120” (Janssen Pharmaceutica NV, priority 2013, dated 2017).

Target: T1, Human GPR120 short form (Homo sapiens, UniProt Q5NUL3)
T1 construct: expressed in transfected cells
T1 sequence (Q5NUL3 1-361): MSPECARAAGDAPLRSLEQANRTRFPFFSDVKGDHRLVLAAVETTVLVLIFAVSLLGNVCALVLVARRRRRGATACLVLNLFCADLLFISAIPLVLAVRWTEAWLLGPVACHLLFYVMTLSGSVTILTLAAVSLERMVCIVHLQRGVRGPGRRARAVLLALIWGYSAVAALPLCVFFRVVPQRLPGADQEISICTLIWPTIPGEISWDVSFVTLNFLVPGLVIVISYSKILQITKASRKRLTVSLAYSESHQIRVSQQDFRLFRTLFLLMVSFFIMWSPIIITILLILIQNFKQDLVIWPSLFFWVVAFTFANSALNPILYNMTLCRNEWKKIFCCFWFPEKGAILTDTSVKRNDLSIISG
Assay: Human GPR120 in Calcium Flux Assay, Procedure Calcium A (2500 cells/well)
Type: cell-based
Summary of the method: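 HEK293 cells stably expressing GPR120 short isoform, 2500 cells/well, serum-starved 1 h, loaded with Fluo-4 NW plus probenecid (30 min 37 °C, 15 min RT). Compounds prepared at 0.012–100 μM, 0.2% DMSO final. FLIPR calcium signal over 300 s as Fmax−Fmin; EC50 from variable-slope fit (Hill <2).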

| Structure (SMILES) | EC50 |
| --- | --- |
| CCc1cc2cc(F)cc(COc3ccc(CCC(=O)O)c(C)c3C)c2o1 [Compound 3, 3-{4-[(2-Ethyl-5-fluoro-1-benzofuran-7-yl)methoxy]-2,3-dimethylphenyl}propanoic acid] | 58 nM |
| CCc1cc2cc(Cl)c(CC)c(COc3ccc(CCC(=O)O)c(C)c3C)c2o1 [Compound 61, 3-{4-[(5-Chloro-2,6-diethyl-1-benzofuran-7-yl)methoxy]-2,3-dimethylphenyl}propanoic acid] | 24 nM |
| Cc1cc2cc3c(c(COc4ccc(CCC(=O)O)c(C)c4C)c2o1)OCO3 [Compound 82, 3-{2,3-Dimethyl-4-[(6-methylfuro[2,3-f][1,3]benzodioxol-4-yl)methoxy]phenyl}propanoic acid] | 153 nM |
| Cc1oc2cccc(COc3ccc(CCC(=O)O)c(C)c3C)c2c1C [Compound 60, 3-{4-[(2,3-Dimethyl-1-benzofuran-4-yl)methoxy]-2,3-dimethylphenyl}propanoic acid] | 162 nM |
| Cc1cc2cc(OC(F)(F)F)cc(COc3ccc(CCC(=O)O)c(C)c3C)c2o1 [Compound 36, 3-(2,3-Dimethyl-4-{[2-methyl-5-(trifluoromethoxy)-1-benzofuran-7-yl]methoxy}phenyl)propanoic acid] | 10 nM |
| CCCc1cc2cc(Cl)cc(COc3ccc(CCC(=O)O)c(C)c3C)c2o1 [Compound 31, 3-{4-[(5-Chloro-2-propyl-1-benzofuran-7-yl)methoxy]-2,3-dimethylphenyl}propanoic acid] | 44 nM |
| COCc1cc2cc(F)cc(COc3ccc(CCC(=O)O)c(C)c3C)c2o1 [Compound 21, 3-(4-{[5-Fluoro-2-(methoxymethyl)-1-benzofuran-7-yl]methoxy}-2,3-dimethylphenyl)propanoic acid] | 159 nM |
| CCCc1cc2cc(C(F)(F)F)cc(COc3ccc(CCC(=O)O)c(C)c3C)c2o1 [Compound 37, 3-(2,3-Dimethyl-4-{[2-propyl-5-(trifluoromethyl)-1-benzofuran-7-yl]methoxy}phenyl)propanoic acid] | 43 nM |
| Cc1nc2cc(Cl)cc(COc3ccc(CCC(=O)O)c(C)c3C)c2o1 [Compound 84, 3-{4-[(5-Chloro-2-methyl-1,3-benzoxazol-7-yl)methoxy]-2,3-dimethylphenyl}propanoic acid] | 131 nM |
| Cc1c(CCC(=O)O)ccc(OCc2cc(Cl)cc3cnn(C)c23)c1C [Compound 7, 3-{4-[(5-Chloro-1-methyl-1H-indazol-7-yl)methoxy]-2,3-dimethylphenyl}propanoic acid] | 124 nM |
| CCc1cc2cc(Cl)c(OCC(F)(F)F)c(COc3ccc(CCC(=O)O)c(C)c3C)c2o1 [Compound 64, 3-(4-{[5-Chloro-2-ethyl-6-(2,2,2-trifluoroethoxy)-1-benzofuran-7-yl]methoxy}-2,3-dimethylphenyl)propanoic acid] | 56 nM |
| Cc1cc2cc(Cl)c(C)c(COc3c(F)cc(CCC(=O)O)cc3F)c2o1 [Compound 86, 3-{4-[(5-Chloro-2,6-dimethyl-1-benzofuran-7-yl)methoxy]-3,5-difluorophenyl}propanoic acid] | 207 nM |
| Cc1cc2cc3c(c(COc4ccc(CCC(=O)O)c(C)c4C)c2o1)OC(F)(F)O3 [Compound 89, 3-{4-[(2,2-Difluoro-6-methylfuro[2,3-f][1,3]benzodioxol-4-yl)methoxy]-2,3-dimethylphenyl}propanoic acid] | 17 nM |
| CCCc1cc2cc(OC(F)F)cc(COc3ccc(CCC(=O)O)c(C)c3C)c2o1 [Compound 77, 3-(4-{[5-(Difluoromethoxy)-2-propyl-1-benzofuran-7-yl]methoxy}-2,3-dimethylphenyl)propanoic acid] | 28 nM |
| CCc1cc2cc(Br)cc(COc3ccc(CCC(=O)O)c(C)c3C)c2o1 [Compound 45, 3-{4-[(5-Bromo-2-ethyl-1-benzofuran-7-yl)methoxy]-2,3-dimethylphenyl}propanoic acid] | 24 nM |
| CCc1cc2cc(Cl)c(OC)c(COc3ccc(CCC(=O)O)c(C)c3C)c2o1 [Compound 44, 3-{4-[(5-Chloro-2-ethyl-6-methoxy-1-benzofuran-7-yl)methoxy]-2,3-dimethylphenyl}propanoic acid] | 27 nM |
| CCc1cc2cc(Cl)cc(COc3ccc(CCC(=O)O)c(C)c3C)c2o1 [Compound 11, 3-{4-[(5-Chloro-2-ethyl-1-benzofuran-7-yl)methoxy]-2,3-dimethylphenyl}propanoic acid] | 23 nM |
| Cc1cc2cc(Cl)cc(COc3c(F)cc(CCCO)cc3F)c2s1 [Compound 93, 3-{4-[(5-Chloro-2-methyl-1-benzothiophen-7-yl)methoxy]-3,5-difluorophenyl}propan-1-ol] | 1600 nM |

| Structure (SMILES) | EC50 |
| --- | --- |
| CCCc1cc2cc(OC(F)(F)F)cc(COc3ccc(CCC(=O)O)c(C)c3C)c2o1 [Compound 35, 3-(2,3-Dimethyl-4-{[2-propyl-5-(trifluoromethoxy)-1-benzofuran-7-yl]methoxy}phenyl)propanoic acid] | 40 nM |
| CCc1cc2cc(Cl)c(OC(C)C)c(COc3ccc(CCC(=O)O)c(C)c3C)c2o1 [Compound 65, 3-(4-{[5-Chloro-2-ethyl-6-(1-methylethoxy)-1-benzofuran-7-yl]methoxy}-2,3-dimethylphenyl)propanoic acid] | 96 nM |
| Cc1c(CCC(=O)O)ccc(OCc2cc(OC(F)(F)F)cc3cc(CC(F)F)oc23)c1C [Compound 96, 3-(4-{[2-(2,2-Difluoroethyl)-5-(trifluoromethoxy)-1-benzofuran-7-yl]methoxy}-2,3-dimethylphenyl)propanoic acid] | 30 nM |
| Cc1cc2cc(OC(F)(F)F)cc(COc3ccc(CCC(=O)O)c4c3CCC4)c2o1 [Compound 55, 3-(7-{[2-Methyl-5-(trifluoromethoxy)-1-benzofuran-7-yl]methoxy}-2,3-dihydro-1H-inden-4-yl)propanoic acid] | 28 nM |
| CCc1cc2cc(Cl)c(OCC(C)C)c(COc3ccc(CCC(=O)O)c(C)c3C)c2o1 [Compound 67, 3-(4-{[5-Chloro-2-ethyl-6-(2-methylpropoxy)-1-benzofuran-7-yl]methoxy}-2,3-dimethylphenyl)propanoic acid] | 93 nM |
| Cc1c(CCC(=O)O)ccc(OCc2cc(Cl)cc3cc(CC(F)F)oc23)c1C [Compound 87, 3-(4-{[5-Chloro-2-(2,2-difluoroethyl)-1-benzofuran-7-yl]methoxy}-2,3-dimethylphenyl)propanoic acid] | 79 nM |
| Cc1c(CCC(=O)O)ccc(OCc2cc(Cl)cc3cc(C=CF)oc23)c1C (mixture of isomers) [Compound 88, 3-(4-((5-Chloro-2-(2-fluorovinyl)benzofuran-7-yl)methoxy)-2,3-dimethylphenyl)propanoic acid] | 147 nM |
| Cc1cc2cc(Cl)c(C)c(COc3ccc(CCC(=O)O)c(C)c3C)c2o1 [Compound 85, 3-{4-[(5-Chloro-2,6-dimethyl-1-benzofuran-7-yl)methoxy]-2,3-dimethylphenyl}propanoic acid] | 15 nM |
| CCc1cc2cc(Cl)c(C)c(COc3ccc(CCC(=O)O)c(C)c3C)c2o1 [Compound 40, 3-{4-[(5-Chloro-2-ethyl-6-methyl-1-benzofuran-7-yl)methoxy]-2,3-dimethylphenyl}propanoic acid] | 34 nM |
| CC#Cc1cc(COc2ccc(CCC(=O)O)c(C)c2C)c2oc(C)cc2c1 [Compound 83, 3-{2,3-Dimethyl-4-[(2-methyl-5-prop-1-yn-1-yl-1-benzofuran-7-yl)methoxy]phenyl}propanoic acid] | 51 nM |
| Cc1cc2cc(Cl)cc(COc3ccc(CCC(=O)O)c(C)c3C)c2s1 [Compound 91, 3-{4-[(5-Chloro-2-methyl-1-benzothiophen-7-yl)methoxy]-2,3-dimethylphenyl}propanoic acid] | 1920 nM |
| CCc1cc2ccc(OC(F)F)c(COc3ccc(CCC(=O)O)c(C)c3C)c2o1 [Compound 70, 3-(4-{[6-(Difluoromethoxy)-2-ethyl-1-benzofuran-7-yl]methoxy}-2,3-dimethylphenyl)propanoic acid] | 162 nM |
| CCc1cc2cc(F)cc(COc3c(F)cc(CCC(=O)O)cc3F)c2o1 [Compound 17, 3-{4-[(2-Ethyl-5-fluoro-1-benzofuran-7-yl)methoxy]-3,5-difluorophenyl}propanoic acid] | 345 nM |
| CCc1cc2cc(Cl)c(OC(F)F)c(COc3ccc(CCC(=O)O)c(C)c3C)c2o1 [Compound 69, 3-(4-{[5-Chloro-6-(difluoromethoxy)-2-ethyl-1-benzofuran-7-yl]methoxy}-2,3-dimethylphenyl)propanoic acid] | 45 nM |
| Cc1c(CCC(=O)O)ccc(OCc2cc(F)cc3cc(CC(C)C)oc23)c1C [Compound 23, 3-(4-{[5-Fluoro-2-(2-methylpropyl)-1-benzofuran-7-yl]methoxy}-2,3-dimethylphenyl)propanoic acid] | 339 nM |
| Cc1c(CCC(=O)O)ccc(OCc2cc(Cl)cc3cn(C)nc23)c1C [Compound 8, 3-{4-[(5-Chloro-2-methyl-2H-indazol-7-yl)methoxy]-2,3-dimethylphenyl}propanoic acid] | 297 nM |
| Cc1nc2c(COc3ccc(CCC(=O)O)c(C)c3C)cc(Cl)cc2s1 [Compound 98, 3-{4-[(6-Chloro-2-methyl-1,3-benzothiazol-4-yl)methoxy]-2,3-dimethylphenyl}propanoic acid] | 18 nM |
| CCOc1ccc2cc(CC)oc2c1COc1ccc(CCC(=O)O)c(C)c1C [Compound 66, 3-{4-[(6-Ethoxy-2-ethyl-1-benzofuran-7-yl)methoxy]-2,3-dimethylphenyl}propanoic acid] | 77 nM |
